From ChEMBL document CHEMBL1201862, “PubChem BioAssay data set” (2004)
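Following 48 hours of exposure in 96-well plates, responses at five concentrations were used to interpolate endpoints linearly. GI50 is the concentration that inhibits growth by half.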 Active and inactive are the calls of the source. Cut-off read from the data, not from the text of the source: active = GI50 up to about 1.1 µM and inactive = higher. Square brackets hold non-standard residues; d marks the D form. Peptide text beside a SMILES is read from it. Phe(4-Cl) = N[CH](Cc1ccc(Cl)cc1)C(=O)O; 2Nal = N[CH](Cc1ccc2ccccc2c1)C(=O)O; 3Pal = N[CH](Cc1cccnc1)C(=O)O

Key:
Assay in all cases: DTP human tumour cell line panel, 48 h
PC-3 = tested on: PC-3
SNB-19 = tested on: SNB-19
ACHN = tested on: ACHN
CCRF-CEM = tested on: CCRF-CEM
SK-MEL-5 = tested on: SK-MEL-5
IGROV-1 = tested on: IGROV-1
T47D = tested on: T47D
K562 = tested on: K562
OVCAR-8 = tested on: OVCAR-8
NCI/ADR-RES = tested on: NCI/ADR-RES
HT-29 = tested on: HT-29
OVCAR-3 = tested on: OVCAR-3
CAKI-1 = tested on: CAKI-1
BT-549 = tested on: BT-549
SF-295 = tested on: SF-295
TK-10 = tested on: TK-10
HOP-62 = tested on: HOP-62
MDA-N = tested on: MDA-N
SR = tested on: SR

Measured: GI50

Cc1cc(O)c(C(C)C)cc1CN1CCCCC1
inactive: PC-3 > 100 µM | SNB-19 > 100 µM | ACHN > 100 µM | CCRF-CEM > 100 µM | SK-MEL-5 > 100 µM | IGROV-1 > 100 µM | T47D > 100 µM | K562 > 100 µM | OVCAR-8 > 100 µM | NCI/ADR-RES > 100 µM | HT-29 > 100 µM | OVCAR-3 > 100 µM | CAKI-1 > 100 µM | BT-549 > 100 µM | SF-295 > 100 µM | TK-10 > 100 µM | HOP-62 > 100 µM | MDA-N > 100 µM

CCOC(=O)CCC(NC(=O)c1ccc(Nc2nc3ccc(C(F)(F)F)cc3nc2-c2ccccc2)cc1)C(=O)OCC (stereo not given)
inactive: SNB-19 > 100 µM | ACHN > 73.6 µM | CCRF-CEM 25.8 µM | SK-MEL-5 30.4 µM | IGROV-1 > 100 µM | T47D 22.1 µM | K562 44.2 µM | OVCAR-8 > 100 µM | NCI/ADR-RES > 100 µM | HT-29 > 100 µM | OVCAR-3 26.6 µM | CAKI-1 > 100 µM | BT-549 > 100 µM | SF-295 > 100 µM | TK-10 > 100 µM | HOP-62 > 100 µM | SR 33.9 µM | MDA-N 19.6 µM

NC(=S)NS(=O)(=O)c1ccc(Cl)cc1Cl
inactive: PC-3 > 100 µM | SNB-19 > 100 µM | ACHN > 100 µM | CCRF-CEM > 100 µM | SK-MEL-5 > 100 µM | IGROV-1 > 100 µM | T47D > 100 µM | K562 > 100 µM | OVCAR-8 > 100 µM | NCI/ADR-RES > 100 µM | HT-29 > 100 µM | OVCAR-3 > 100 µM | CAKI-1 > 100 µM | BT-549 > 100 µM | SF-295 > 100 µM | TK-10 > 100 µM | HOP-62 > 100 µM | MDA-N > 100 µM

CS(=O)(=O)OCCn1c(=O)n(CCOS(C)(=O)=O)c(=O)n(CCOS(C)(=O)=O)c1=O
inactive: SNB-19 > 100 µM | ACHN > 100 µM | CCRF-CEM > 100 µM | SK-MEL-5 > 100 µM | IGROV-1 > 100 µM | T47D > 100 µM | K562 > 100 µM | OVCAR-8 > 100 µM | NCI/ADR-RES > 100 µM | HT-29 > 100 µM | OVCAR-3 > 100 µM | CAKI-1 > 100 µM | BT-549 > 100 µM | SF-295 > 100 µM | TK-10 > 100 µM | HOP-62 > 100 µM | SR > 100 µM | MDA-N > 100 µM

O=[N+]([O-])/C(C(Cl)=C(Cl)Cl)=C(\N1CCOCC1)n1nnc2ccccc21
inactive: PC-3 17.1 µM | SNB-19 14.3 µM | ACHN 18.7 µM | SK-MEL-5 17.6 µM | T47D 16.9 µM | NCI/ADR-RES 25.9 µM | OVCAR-3 19.8 µM | CAKI-1 17.7 µM | BT-549 19 µM | SF-295 17.7 µM | TK-10 29.3 µM | HOP-62 18.8 µM | MDA-N 19.6 µM

CC(=O)Oc1cc(C(F)(F)F)ccc1C(=O)OC1(C)OC(=O)c2ccc(C(F)(F)F)cc2O1 (stereo not given)
inactive: PC-3 > 100 µM | SNB-19 > 100 µM | ACHN > 100 µM | CCRF-CEM > 100 µM | IGROV-1 > 100 µM | T47D > 100 µM | K562 > 100 µM | OVCAR-8 > 100 µM | NCI/ADR-RES > 100 µM | HT-29 > 100 µM | OVCAR-3 > 100 µM | CAKI-1 > 100 µM | BT-549 > 100 µM | SF-295 > 100 µM | TK-10 > 100 µM | HOP-62 > 100 µM | MDA-N > 100 µM

CCCCCC(/C=C/[C@@H]1[C@@H](C(O)CCCCCC(=O)OC)C(=O)C[C@H]1O[Si](C)(C)C(C)(C)C)OCOCCOC (stereo not given in full)
inactive: PC-3 13.8 µM | SNB-19 15.3 µM | ACHN 15.3 µM | CCRF-CEM 2.62 µM | SK-MEL-5 14.5 µM | IGROV-1 6.28 µM | T47D 21.4 µM | K562 > 21 µM | OVCAR-8 16.5 µM | NCI/ADR-RES 18.9 µM | HT-29 6.7 µM | OVCAR-3 14.9 µM | CAKI-1 17.2 µM | BT-549 9.06 µM | SF-295 17.9 µM | TK-10 16.6 µM | HOP-62 16.9 µM | MDA-N 8.51 µM

c1ccc(CC2COC(c3cccs3)=N2)cc1 (stereo not given)
inactive: SNB-19 > 70.3 µM | ACHN 78.5 µM | CCRF-CEM 38.1 µM | SK-MEL-5 57.7 µM | IGROV-1 > 100 µM | T47D 26 µM | K562 46.6 µM | OVCAR-8 > 100 µM | NCI/ADR-RES 48.5 µM | HT-29 > 100 µM | OVCAR-3 > 86.5 µM | CAKI-1 > 100 µM | BT-549 54.8 µM | SF-295 > 86.3 µM | TK-10 > 90.2 µM | HOP-62 > 100 µM | SR 46.7 µM | MDA-N > 100 µM

COc1cc(CN2CCCCC2)cc2cc(C(=O)O)c(=O)oc12
inactive: PC-3 > 100 µM | SNB-19 > 100 µM | ACHN > 100 µM | CCRF-CEM > 100 µM | SK-MEL-5 > 100 µM | IGROV-1 > 100 µM | T47D > 70.1 µM | K562 > 100 µM | OVCAR-8 > 100 µM | NCI/ADR-RES > 100 µM | HT-29 > 100 µM | OVCAR-3 > 100 µM | CAKI-1 > 100 µM | BT-549 > 100 µM | SF-295 > 100 µM | TK-10 > 100 µM | HOP-62 > 100 µM | MDA-N > 100 µM

COC(=O)C1C(C(=O)OC)C1(Br)CBr (stereo not given)
inactive: PC-3 > 100 µM | SNB-19 > 100 µM | ACHN 25.8 µM | SK-MEL-5 > 99.5 µM | IGROV-1 30.5 µM | T47D 23.2 µM | OVCAR-8 32.5 µM | NCI/ADR-RES > 100 µM | HT-29 24 µM | OVCAR-3 89.3 µM | CAKI-1 17.8 µM | BT-549 33.1 µM | SF-295 > 100 µM | TK-10 > 100 µM | HOP-62 > 100 µM | SR 17.9 µM | MDA-N 63.7 µM

CC(=O)NC(Cc1ccc2ccccc2c1)C(=O)NC(Cc1ccc(Cl)cc1)C(=O)NC(Cc1cccnc1)C(=O)NC(CO)C(=O)NC(Cc1ccc(O)cc1)C(=O)NC(CCCN=C(N)N)C(=O)NC(CC(C)C)C(=O)NC(CCCN=C(N)N)C(=O)N1CCCC1C(=O)NC(C)C(N)=O (stereo not given) (Ac-[2Nal][Phe(4-Cl)][3Pal]SYRLRPA-NH2; configuration not given here)
inactive: PC-3 > 100 µM | SNB-19 > 100 µM | ACHN > 100 µM | CCRF-CEM > 100 µM | SK-MEL-5 94 µM | IGROV-1 > 100 µM | K562 > 100 µM | OVCAR-8 > 100 µM | NCI/ADR-RES > 100 µM | HT-29 > 100 µM | OVCAR-3 49.9 µM | CAKI-1 > 100 µM | BT-549 > 100 µM | TK-10 > 100 µM | HOP-62 > 100 µM | SR > 100 µM | MDA-N > 100 µM
